# Assay results reported in patent EP0624584B1, “Piperazine derivatives useful as calmodulin inhibitors” (DAIICHI PHARMACEUTICAL CO., LTD., priority 1993, dated 1994).
# Key:
# [1] = system: Nitrogen-induced Hypoxia Model in Mouse; assay: Activity on nitrogen-induced hypoxia model in mouse; format: in vivo; conditions: 30 mg/kg, p.o.; 60 minutes after administration; time to respiratory standstill over that of a control group (100%)
# Description: Nine to ten mice per group were each orally given […] of a test compound. After 60 minutes from the administration, each mouse was put in a 500 mℓ-volume transparent container having a vent hole, and nitrogen gas was introduced into the container at a rate of 5000 mℓ/min. The time from the start of nitrogen introduction to respiratory standstill was measured, and a rate of increase of the time over that of a control group (100%) was obtained.
# [2] = target: calmodulin-depending cyclic nucleotide phosphodiesterase (PDE); assay: Calmodulin (CaM) inhibitory activity: inhibition of Ca/calmodulin-dependent PDE activity; format: biochemical; conditions: concentration showing 50% inhibition of PDE activity potentiated by CaM; CaM and PDE from bovine brain, [3H]-cGMP, 30°C, 10 minutes
# Description: The calmodulin inhibitory activity of a compound was evaluated by using its effect of inhibiting calmodulin-depending cyclic nucleotide phosphodiesterase (PDE) as an index. The assay for PDE inhibitory activity was carried out by the following procedure described by Thompson (Advances in Cyclic Nucleotide Research, 10, 69, 1979) with a modification. The first-stage incubation was carried out at 30°C for 10 minutes with the following reaction mixture: 50 mM Tris-HCl buffer (pH 7.5), 5 mM MgCl2, 1 mg/ml bovine serum albumin, CaM from bovine brain, [^3H]-cGMP, 1 mM CaCl2 or 1 mM EGTA, PDE from bovine brain, and a test compound in a total volume of 0.5 ml. After the incubation, the mixture was heated on a boiling water bath for 1 minute. Then, 50 µl of snake venom (1 mg/ml) was added to the reaction mixture and the whole mixture was incubated at 30°C for 10 minutes. After the incubation, 0.5 ml of AG1-X2 resin (1:1 slurry in water) was added to the mixture and centrifuged at 3000Xrpm for 20 min. The radioactivity of the supernatant solution was measured by a liquid scintillation counter. The IC50 value was determined as the concentration showing 50% inhibition of PDE activity potentiated by CaM.
Structure (SMILES),Rate of Increase of Survival Time [1] [%],IC50 [2] [µM]
"COc1ccc(Cn2nc(CCN3CCN(c4cccc(Cl)c4C)CC3)c3cc(OC)c(OC)cc32)cc1OC [Example 12, 3-(2-(4-(3-Chloro-2-methylphenyl)-1-piperazinyl)-ethyl)-5 6-dimethoxy-1-(3,4-dimethoxybenzyl)-1H-indazole]",19.2,3.1
"COc1cc2c(CCN3CCN(c4cccc(Cl)c4C)CC3)nn(Cc3c[nH]cn3)c2cc1OC [Example 15, 3-(2-(4-(3-Chloro-2-methylphenyl)-1-piperazinyl)-ethyl)-5,6-dimethoxy-1-(4-imidazolylmethyl)-1H-indazole]",15.1,5.5
"NCCCCCCNS(=O)(=O)c1cccc2c(Cl)cccc12 [Example W-7, reference compound]",,33.5
